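96-well plates; 48 h exposure; 5 concentrations. Endpoints by linear interpolation between flanking doses. Not reached: highest tested concentration assigned. GI50 = concentration required for 50% inhibition of growth.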 Activity calls are given as the source filed them. No stated cut-off is given here; in the data, active = GI50 up to about 1.1 µM and inactive = higher.
Legend:
Assay in all cases: DTP human tumour cell line panel, 48 h
[1] = test system: UO-31
[2] = test system: SF-539
[3] = test system: NCI-H460
[4] = test system: HCC 2998
[5] = test system: COLO 205
[6] = test system: ACHN
[7] = test system: LXFL 529
[8] = test system: XF498
[9] = test system: HOP-62
[10] = test system: LOX IMVI
[11] = test system: KM12
[12] = test system: DMS-114
[13] = test system: A549
[14] = test system: SK-MEL-2
[15] = test system: TK-10
[16] = test system: RXF 631
[17] = test system: HOP-18
[18] = test system: M19-MEL
[19] = test system: CCRF-CEM
[20] = test system: HT-29
[21] = test system: SNB-19
[22] = test system: NCI-H23
[23] = test system: SF-268
[24] = test system: SF-295
[25] = test system: K562
[26] = test system: HL-60
[27] = test system: UACC-257
[28] = test system: OVCAR-8
[29] = test system: SW-620
[30] = test system: SNB-78
[31] = test system: SNB-75
[32] = test system: M14
[33] = test system: U-251
[34] = test system: DLD-1
[35] = test system: IGROV-1
[36] = test system: SK-OV-3
[37] = test system: OVCAR-3
[38] = test system: A498
[39] = test system: OVCAR-4
[40] = test system: NCI-H522
[41] = test system: RXF 393
[42] = test system: RPMI-8226
[43] = test system: 786-0
[44] = test system: NCI-H226
[45] = test system: SN12C
[46] = test system: HOP-92
[47] = test system: UACC-62
[48] = test system: HCT-15
[49] = test system: SK-MEL-5
[50] = test system: Malme-3M
[51] = test system: HCT-116
[52] = test system: KM-20L2
[53] = test system: SK-MEL-28
[54] = test system: CAKI-1
[55] = test system: DMS-273
[56] = test system: MOLT-4
[57] = test system: EKVX
[58] = test system: SR

Measured: GI50

C[C@]12CC[C@H](OC(=O)Cc3ccc(N(CCCl)CCCl)cc3)CC1CC[C@@H]1C2CC[C@]2(C)NC(=O)CCC12 (stereo partly specified)
inactive: [1] 29.3 µM | [2] 3.5 µM | [3] 5.16 µM | [4] 18.7 µM | [5] 5.4 µM | [6] 4.04 µM | [7] 8.3 µM | [8] 13.6 µM | [9] > 10 µM | [10] 13.2 µM | [11] 11 µM | [12] 6.31 µM | [13] 14.6 µM | [14] 25.5 µM | [15] 19.9 µM | [16] 16 µM | [17] 16.7 µM | [18] 14.3 µM | [19] 3.54 µM | [20] 1.87 µM | [21] 13 µM | [22] 11.8 µM | [23] 9.64 µM | [24] 11.8 µM | [25] 4.06 µM | [26] 2.48 µM | [27] 13.2 µM | [28] > 10 µM | [29] 9.33 µM | [30] 14.1 µM | [31] 10.1 µM | [32] 13.2 µM | [33] 11.2 µM | [34] 16.3 µM | [35] 14 µM | [36] 17 µM | [37] 4.04 µM | [38] 18.9 µM | [39] 12.2 µM | [40] 10.7 µM | [41] 7.74 µM | [42] 4.16 µM | [43] 11.5 µM | [44] 15.5 µM | [45] 5.38 µM | [46] 15.6 µM | [47] 6.68 µM | [49] 15.6 µM | [50] 15.8 µM | [51] 5.11 µM | [52] 5.58 µM | [53] 15 µM | [54] 3.92 µM | [55] 5.64 µM | [56] 3.08 µM
13.9 µM: [48]

Cc1ccc(C)c(N2C(=O)C(=O)C(c3nc4ccccc4s3)/C(=N/NC(=O)NN)C2=O)c1 (stereo unspecified)
> 100 µM: [48]
inactive: [1] > 100 µM | [2] > 100 µM | [3] > 100 µM | [4] > 100 µM | [5] > 100 µM | [6] > 100 µM | [7] > 100 µM | [8] > 100 µM | [9] > 100 µM | [11] > 100 µM | [12] > 100 µM | [13] > 100 µM | [14] > 100 µM | [15] > 100 µM | [16] > 100 µM | [57] > 100 µM | [17] > 100 µM | [18] > 100 µM | [19] > 100 µM | [20] > 100 µM | [21] > 100 µM | [22] > 100 µM | [23] > 100 µM | [24] > 100 µM | [26] > 100 µM | [27] > 100 µM | [28] > 100 µM | [29] > 100 µM | [58] > 100 µM | [30] > 100 µM | [31] > 100 µM | [32] > 100 µM | [33] > 100 µM | [34] > 100 µM | [35] > 100 µM | [36] > 100 µM | [37] > 100 µM | [38] > 100 µM | [39] > 100 µM | [40] > 100 µM | [41] > 100 µM | [43] > 100 µM | [44] > 100 µM | [45] > 100 µM | [46] > 100 µM | [47] > 100 µM | [49] > 100 µM | [50] > 100 µM | [51] > 100 µM | [52] > 100 µM | [53] > 100 µM | [54] > 100 µM | [55] > 100 µM | [56] > 100 µM
